Counter-ions that a name gives are not always drawn.
Assay: MIC of test compounds against various organisms
Type: cell-based
Conditions: against one or more of the above range of gram positive and gram negative bacteria
Experimental: The MIC (μg/ml) of test compounds against various organisms was determined:
S. aureus Oxford, S. aureus WCUH29, S. pneumoniae 1629, S. pneumoniae N1387, S. pneumoniae ERY 2, E. faecalis 1, E. faecalis 7, H. influenzae Q1, H. influenzae NEMC1, M. catarrhalis 1502, E. coil 7623, E.coli 120.

SMILES | MIC [µg/mL]
CCOC(=O)C1CN(C[C@H](O)c2ccnc3ccc(OC)cc23)CCC1NCC(=O)Nc1ccccc1 (mixture of isomers) [Example 2, cis-2-{1-[2-(R)-Hydroxy-2-(6-methoxy-quinolin-4-yl)-ethyl]-3-(R/S)-ethoxycarbonyl-piperidin-4-(S/R)-ylamino}-N-phenyl-acetamide dioxalate] | ≤ 0.25
COc1ccc2nccc([C@@H](O)CN3CCC(NCC(=O)Nc4ccccc4)C(CO)C3)c2c1 (mixture of isomers) [Example 3, cis-2-{1-[2-(R)-Hydrxy-2-(6-methoxy-quinolin-4-yl)-ethyl]-3-(R/S)-hydroxymethyl-piperidin-4-(S/R)-ylamino}-N-phenyl-acetamide dioxalate] | ≤ 2
COc1ccc2nccc([C@@H](O)CN3CCC(NCC(=O)Nc4ccccc4)C(C(N)=O)C3)c2c1 (mixture of isomers) [Example 4, cis-2-{1-[2-(R)-Hydroxy-2-(6-methoxy-quinolin-4-yl)-ethyl]-3-(R/S)-aminocarbonyl-piperidin-4-(S/R)-ylamino}-N-phenyl-acetamide dioxalate] | ≤ 2
CCOC(=O)C1CN(C(=O)Nc2ccnc3ccc(OC)cc23)CCC1NCC(=O)Nc1ccccc1 (racemic) [Example 5, cis-3-(R/S)-Ethoxycarbonyl-4-(S/R)-(phenylcarbamoylmethyl-amino)-piperidine-1-carboxylic acid (6methoxy-quinolin-4-yl)-amide oxalate] | ≤ 32
COc1ccc2nccc(NC(=O)N3CCC(NCC(=O)Nc4ccccc4)C(CO)C3)c2c1 (racemic) [Example 6, cis-3-(R/S)-Hydroxymethyl-4-(S/R)-(phenylcarbamoylmethyl-amino)-piperidine-1-carboxylic acid (6-methoxy-quinolin-4-yl)-amide oxalate] | ≤ 32
COc1ccc2nccc(NC(=O)N3CCC(NCCCc4ccco4)C(CO)C3)c2c1 (racemic) [Example 53, cis-4-(S/R)-[3-(2-Furyl)-propyl]amino-3-(R/S)-hydroxymethyl-[6-methoxyquinolin-4-yl)]aminocarbonylpiperidine oxalate] | ≤ 2
COc1ccc2nccc([C@@H](O)CN3CCC(NCC(=O)Nc4ccccc4)CC3)c2c1 [Example 1, 2-{1-[(R)-2-Hydroxy-2-(6-methoxy-quinoin-4-yl)-ethyl]-piperidin-4-ylamino}-N-phenyl-acetamide dioxalate] | ≤ 0.25
COc1ccc2nccc([C@@H](O)CN3CCC(N(C)CC(=O)Nc4ccccc4)CC3)c2c1.O=C(O)C(=O)O.O=C(O)C(=O)O [Example 12, 2-{1-[(R)-2-Hydroxy-2-(6-methoxy-quinolin-4-yl)-ethyl]-piperidin-4-yl-N-methylamino}-N-phenyl-acetamide dioxalate] | ≤ 32
COc1ccc2nccc([C@@H](O)CN3CCC(NCC(=O)Nc4ccccn4)CC3)c2c1 [Example 13, 2-{1-[(R)-2-Hydroxy-2-(6-methoxy-quinolin-4-yl)-ethyl]-piperidin-4-ylamino}-N-pyridin-2-yl-acetamide dioxalate] | ≤ 0.25
COc1ccc2nccc([C@@H](O)CN3CCC(NCC(=O)Nc4ccc(F)c(F)c4)CC3)c2c1 [Example 17, N-(3,4-Difluoro-phenyl)-2-{1-[(R)-2-hydroxy-2-(6-methoxy-quinolin-4-yl-ethyl]-piperidin-4-ylamino)-acetamide dioxalate] | ≤ 0.25
COc1ccc2nccc([C@@H](O)CN3CCC(NCC(=O)Nc4ccc(Cl)c(Cl)c4)CC3)c2c1 [Example 18, N-(3,4-Dichloro-phenyl)-2-{1-[(R)-2-hydroxy-2-(6-methoxy-quinolin-4-yl-ethyl]-piperidin-4-ylamino)-acetamide dioxalate] | ≤ 2
COc1ccc2nccc([C@@H](O)CN3CCC(NCC(=O)Nc4ccccc4C#N)CC3)c2c1 [Example 19, N-(2Cyano-phenyl)-2-{1-[(R)-2-hydroxy-2-(6-methoxy-quinolin-4-yl-ethyl]-piperidin-4-ylamino)-acetamide dioxalate] | ≤ 0.25
COc1ccc2nccc([C@@H](O)CN3CCC(NCC(=O)Nc4ccccc4[N+](=O)[O-])CC3)c2c1 [Example 20, 2-{1-[(R)-2-Hydroxy-2-(6-methoxy-quinolin-4-yl-ethyl]-piperidin-4-ylamino}-N-(2nitro-phenyl)-acetamide dioxalate] | ≤ 0.25
COc1ccc2nccc([C@@H](O)CN3CCC(NCC(=O)Nc4cc(F)cc(F)c4)CC3)c2c1 [Example 29, N-(3,5-Difluoro-phenyl)-2-{1-[(R)-2-hydroxy-2-(6-methoxy-quinolin-4-yl)-ethyl]-piperidin-4-ylamino)-acetamide dioxalate] | ≤ 0.25
COc1ccc2nccc([C@@H](O)CN3CCC(NCC(=O)Nc4cccc(C#N)c4)CC3)c2c1 [Example 34, N-[3-Cyano-phenyl]-2-{1-[(R)-2-hydroxy-2-(6-methoxy-quinolin-4-yl)-ethyl]-piperidin-4-ylamino)-acetamide dioxalate] | ≤ 32
COc1ccc2nccc([C@@H](O)CN3CCC(NCC(=O)Nc4ccc(F)c([N+](=O)[O-])c4)CC3)c2c1 [Example 36, N-[4-Fluoro-3-nitro-phenyl]-2-{1-[(R)-2-hydroxy-2-(6-methoxyquinolin-4-ethyl]-piperidin-4-ylamino)-acetamide dioxalate] | ≤ 32
COC(=O)C1(NCC(=O)Nc2ccccc2)CCN(C[C@H](O)c2ccnc3ccc(OC)cc23)CC1.O=C(O)C(=O)O.O=C(O)C(=O)O [Example 37, 2-{1-[2-(R)-Hydroxy-2-(6-methoxy-quinolin-4-yl)-ethyl]-4-methoxycarbonyl-piperidin-4-ylamino)-N-phenyl-acetamide dioxalate] | ≤ 32
COc1ccc2nccc([C@@H](O)CN3CCC(CO)(NCC(=O)Nc4ccccc4)CC3)c2c1 [Example 38, 2-{1-[2-(R)-Hydroxy-2-(6-methoxy-quinolin-4-yl)-ethyl]-4-hydroxymethyl-piperidin-4-ylamino}-N-phenyl-acetamide dioxalate] | ≤ 2
COc1ccc2nccc([C@@H](O)CN3CCC(NCC(=O)Nc4ccc(F)cc4)CC3)c2c1 [Example 41, N-(4-Fluoro-phenyl)-2-{1-[(R)-2-hydroxy-2-(6-methoxy-quinlin-4-yl)-ethyl]-piperidin-4-ylamino}-acetamide dioxalate] | ≤ 2
COc1ccc2nccc(CCN3CCC(NCC(=O)Nc4ccc(F)cc4)CC3)c2c1 [Example 42, N-(4-Fluoro-phenyl)-2-{1-[2-(6-methoxy-quinolin-4-yl)-ethyl]-piperidin-4-ylamino}-acetamide dioxalate] | ≤ 2
COc1ccc2nccc([C@@H](O)CN3CCC(NC/C=C/c4ccccc4[N+](=O)[O-])CC3)c2c1 [Example 54, 4-[trans-1-(2-Nitrophenyl)-3-propeny]amino-1-[2-(R)-hydroxy-2-(6-methoxyquinolin-4-yl)]ethylpiperidine dioxalate] | ≤ 0.25
COc1ccc2nccc([C@@H](O)CN3CCC(NC(=O)/C=C/c4ccco4)CC3)c2c1 [Example 72, (E)-3-Furan-2-yl-N-{1-[(R)-2-hydroxy-2-(6-methoxyquinolin-4-yl)-ethyl]-piperidin-4-yl}-acrylamide oxalate] | ≤ 2
COc1ccc2nccc([C@@H](O)CN3CCC(NC/C=C/c4nccs4)CC3)c2n1 [Example 73, 4-[trans-1-(2-Thiazolyl)-3-propenyl]amino-1-[2-(R)-hydroxy-2-(6-methoxy-[1,5]-naphthyridin-4-yl)]ethylpiperidine dimethanesulphonate] | ≤ 0.25
COc1cc(F)c2nccc([C@@H](O)CN3CCC(NCCOc4ccccn4)CC3)c2c1 [Example 74, 4-[2-(Pyridin-2-yloxy)-ethylamino]-1-[2-(R)-hydroxy-2-(8-fluoro-6-methoxyquinolin-4-yl)]ethylpiperidine dioxalate] | ≤ 0.25
COc1ccc2nccc([C@@H](O)CN3CCC(NCCCn4cc(F)c(=O)[nH]c4=O)CC3)c2c1 [Example 75, 5-Fluoro-1-(3-{1-[(R)-2-hydroxy-2-(6-methoxy-quinolin-4-yl)-ethyl]piperidin-4-ylamino}-propyl)-1H-pyrimidine-2,4-dione dioxolate] | ≤ 32
